The values that follow come from US11299543B2, “Use of an anti-PD-1 antibody in combination with an anti-CD30 antibody in cancer treatment” (Bristol-Myers Squibb Company, priority 2016, dated 2022).

For one data set, the system named is TARC, IP10, IL-18, IFNγ. Briefly: phase 1/2 study NCT02572167, serum cytokine and chemokine levels. The format is in vivo, human. How it is done: FIGS. 6A-6D show priming of the immune system of patients treated with brentuximab vedotin (BV) in combination with nivolumab.
(§1) A phase 1/2 study (NCT02572167) is ongoing to assess the safety profile and antitumor activity of BV administered in combination with nivolumab in patients with relapsed or refractory Hodgkin lymphoma (HL). Patients will be treated for up to four 21-day cycles with BV 1.8 mg/kg and nivolumab 3 mg/kg. Patients will be administered 1.8 mg/kg BV on Cycle 1 Day 1, and 3 mg/kg nivolumab on Cycle 1 Day 8. For cycles 2 through 4, BV and nivolumab will be administered on Day 1 of each cycle at the same doses, e.g., 1.8 mg/kg BV and 3 mg/kg nivolumab. Both BV and nivolumab will be administered by IV injection. After completion of the Cycle 4 response assessment (EOT), patients will be eligible to undergo ASCT. Responses were assessed using the 2014 Lugano classification (Cheson et al., J Clin Oncol 2014; 32(27):3059-68).

In data set [1] the test system is peripheral blood T cell subsets. As to the kind of experiment: phase 1/2 study NCT02572167, peripheral blood immunophenotyping. The format is in vivo, human.
Text: FIGS. 7A-7C show peripheral blood immunophenotyping. T helper subsets, such as Tregs, (FIG. 7A), activated CD4^+ T cells (FIG. 7B), and proliferating CD4^+ T cells (FIG. 7C), which were reduced after single agent BV dosing, expanded after BV and nivolumab combination dosing.
as §1

Data set [2] relates to wild-type A20 cells. As to the kind of experiment: immunization with drug-killed A20^hcD30 cells, then wild-type A20 challenge. The format is in vivo, Balb/c mice. The settings on record: mice immunized with drug-killed A20^hcD30 cells; for tumor growth: 5×10^6 wild-type A20 cells s.c. How it is done:
A20 mouse lymphoma cells were transfected with plasmid constructs encoding human TNFRSF8 (NM_001243.4) and sgRNA/Cas9 for control under the endogenous promoter of murine Tnfrsf8. Fluorescence activated cell sorting (FACS) yielded a clonal population of A20 cells that stably expressed human CD30, to be referenced as A20^hcD30, in order to be susceptible to brentuximab vedotin treatment.
A20^hcD30 cells were cultured in RPMI 1640 with 10% FBS, 10 mM HEPES, 1 mM sodium pyruvate, penicillin (100 U/ml), and streptomycin (100 μg/ml). A20^hcD30 cells were treated with 1 μg/ml BV or 100 nM mc-vc-MMAE for 4 days. In order to prepare dying cells for immunization, treated A20^hcD30 cells were overlaid atop Histopaque, and centrifuged at 2000 g for 30 minutes. Dead and dying cells were pelleted underneath the Histopaque layer, and viability was assessed to be <20% live cells by trypan blue exclusion. Flash-frozen A20^hcD30 cells were prepared by submerging cells in liquid nitrogen for 10 seconds, followed by immersion in 37° C. water until completely thawed. The liquid nitrogen freeze-thaw process was repeated 5 times. Dead and dying A20^hcD30 cells were resuspended in PBS and 2×10^6 cells were injected into the peritoneum of immune-competent Balb/c mice. 7 days later, mice received a second immunization with dead and dying cells prepared in the same manner.
14 days after initial immunization, mice were subcutaneously implanted with 5×10^6 wild-type A20 cells and monitored for tumor growth. […] As these effects occurred in the absence of any administered therapeutic, the presence of cells killed by BV or MMAE were sufficient to generate long-lasting protective immune memory against subsequent A20 lymphoma challenge.

Data set [3] relates to wild-type A20 cells. As to the kind of experiment: T cell transfer from immunized mice into A20 tumor-bearing NSG mice. It counts as in vivo. On the procedure: Immune-competent Balb/c mice were immunized with BV-killed or flash-frozen-killed A20^hcD30 cells as previously described. 16 weeks after initial immunization, spleens were harvested from immunized mice or naïve Balb/c mice, and manually homogenized. Splenic homogenates were combined from 4 mice per immunization, and CD3^+ T cells were isolated using EasySep Mouse T cell Enrichment Kit (Stem Cell Technologies). 1×10^6 CD3+ T cells were administered intravenously into A20 tumor-bearing mice.
4×10^6 wild-type A20 cells were subcutaneously implanted into immunodeficient NOD/SCID/γ-chain-deficient (NSG) mice. 5 days after implant, mice harboring tumors˜100 mm^3 were randomized, and received 1×10^6T cells from mice as described above.

The test system of data set [4] is wild-type A20 cells. As to the kind of experiment: immunization with drug-killed A20^hcD30 cells plus anti-PD-1, A20 challenge. It counts as in vivo, Balb/c mice. The settings on record: anti-PD-1 1 mg/kg i.v. days 6, 9, 14, 17. On the procedure: Balb/c mice were immunized with BV- or MMAE-killed A20^hcD30 cells as described above. 14 days after initial immunization, mice were subcutaneously implanted with 5×10^6 wild-type A20 cells. Anti-murine PD-1 (1 mg/kg, BioLegend) was administered intravenously on days 6, 9, 14, and 17 after A20 tumor challenge.

Data set [5] concerns LCL tumors. As to the kind of experiment: T cell and NK cell infiltration into autologous LCL tumors, humanized mouse model. It counts as in vivo, NSG mice. The settings on record: single suboptimal dose 1 mg/kg i.p., autologous PBMC transferred. How it is done: Epstein Barr virus (EBV) transformed lymphoblastoid cell Lines (LCL) were implanted subcutaneously into NSG mice. When LCL tumor volumes reached 250 mm^3, mice received a single suboptimal dose of BV or control hIgG-MMAE (1 mg/kg, i.p). Three days following dosing, 2.0×10^6 autologous peripheral blood mononuclear cells (PBMC) were adoptively transferred to mice via tail vein injection. Eleven days following transfer of PBMC, tumors were harvested, weighed, and manually dissociated through a 70 μm cell strainer. Following centrifugation, individual tumor cell pellets were resuspended in 4 ml of RPMI+10% FCS, and 200 ul of the cell suspension was used for staining and analysis by flow cytometry (FACS). Tumor cell suspensions were stained with Zombie Aqua Viability Dye (Biolegend) followed by staining with fluorescently labeled antibodies targeting human CD19, CD2, CD8, CD4, CD56, human CD45, PD-L1, PD-1, and murine CD45.1 (1:50 dilution, Biolegend) in staining buffer (SB: PBS, 2% FCS, 1% NRS, 0.05% NaN3) at 4° C. for 30 minutes. Cells were washed and resuspended in 120 μl of SB for plate-based FACS using an Attune NXT flow cytometer. All events were collected from 80 μl of sample, and FACS-measured cell concentrations were used to calculate numbers of infiltrating immune cells. CD8^+ T cells were identified as viability dye^neg, hCD45^+, mCD45.1^−, CD2^+, CD8^+ cells. […]

For data set [6], the system named is LCL tumors. As to the kind of experiment: immune-mediated tumor clearance in the humanized LCL tumor model. The format is in vivo, NSG mice. On the procedure:
Epstein Barr virus (EBV) transformed lymphoblastoid cell lines (LCL) were implanted subcutaneously into NSG mice. When LCL tumors averaged 250 mm^3, mice received a single suboptimal dose of BV or control hIgG-MMAE (1 mg/kg, i.p). Three days following dosing, 2×10^6 autologous PBMC were adoptively transferred to mice via tail vein injection. Mice received two doses of nivolumab (10 mg/kg, i.p.) 2 and 7 days after adoptive transfer of PBMC. […] The significance of these differences is reflected in a comparison of mean tumor volumes at day 50, during active tumor clearance (FIG. 15B). Taken together, results obtained from this humanized model support the conclusion that in addition to direct tumor cell killing, BV drives an inflammatory response that enhances immune-mediated cellular cytotoxicity and pairs well with nivolumab.

Data set [7] deals with CD30+ relapsed, refractory DLBCL. Conditions: patients treated with BV; cited from earlier work.
Data set [8] deals with CD30+ relapsed, refractory peripheral T-cell lymphoma (PTCL). The settings on record: patients treated with BV; cited from earlier work.
The subject of data set [9] is CD30+ cutaneous T-cell lymphoma (CTCL). Conditions: patients treated with BV; cited from earlier work.
The next data set has as its system CD30^+ cell lines. Conditions: in vitro; cited from earlier work.
Data set [10] deals with xenograft models of Hodgkin disease. Conditions: SCID mouse xenograft; cited from earlier work.
The target of the next data set is T1, PD-1 (Homo sapiens, UniProt Q15116).
T1 construct: Receptor-occupancy data from 15 subjects who received 0.3 mg/kg to 10 mg/kg dosing with nivolumab indicate that PD-1 occupancy appears to be dose-independent; host or cells: endogenous receptor in dosed subjects
The settings on record: 15 subjects, 0.3 mg/kg to 10 mg/kg nivolumab, across all doses; cited from earlier work.

For data set [11] the following is noted: monotherapy, every two weeks; MTD not reached; cited from earlier work.

“Also recorded” adds a separate entry of the source. *1 amine or outer side, *2 acyl side, *3 side chain or, on linkers, in order; H or OH if unused. Where a SMILES comes first, the peptide text is derived from it. [ ]: non-standard residue; d: D form. The star is where a group is joined. Dolaproine = CO[C@@H]([C@@H]1CCCN1)[C@@H](C)C(=O)O; Hexanoyl(6-maleimido) = O=C1C=CC(=O)N1CCCCCC(=O)*; Dil = CC[C@H](C)[C@H](NC)[C@@H](CC(=O)O)OC; PABC = O=C(OCc1ccc(N[*:1])cc1)[*:2]; X1 = C[C@@H](N*)[C@@H](O)c1ccccc1; Cit = NC(=O)NCCC[C@H](N)C(=O)O; NMeV = CN[C@H](C(=O)O)C(C)C

T1 sequence (Q15116 25-288): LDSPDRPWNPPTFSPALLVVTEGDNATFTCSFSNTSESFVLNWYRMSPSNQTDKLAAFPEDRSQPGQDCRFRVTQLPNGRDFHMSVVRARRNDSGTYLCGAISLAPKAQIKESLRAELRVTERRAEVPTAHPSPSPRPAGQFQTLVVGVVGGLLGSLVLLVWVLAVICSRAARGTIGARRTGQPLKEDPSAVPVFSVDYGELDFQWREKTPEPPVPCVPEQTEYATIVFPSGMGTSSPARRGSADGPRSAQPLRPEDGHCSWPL

Take “BV: CD30-directed antibody-drug conjugate: chimeric anti-CD30 antibody cAC10, MMAE and a protease-cleavable linker”: the “pro-inflammatory cytokine and chemokine levels” value in the data set on TARC, IP10, IL-18, IFNγ (after BV dosing, following concurrent BV and nivolumab) is listed as “increase”. For the same compound, the “Pro-inflammatory cytokine IL-18 levels” value with TARC, IP10, IL-18, IFNγ (after C1D1 BV dosing, with BV and nivolumab dosing) was “significantly higher”. Moreover, in the data set on TARC, IP10, IL-18, IFNγ (after C1D1 BV, following C1D8 nivolumab dosing), the “T-cell chemokine IP10 levels” value was “significantly higher”. Besides, the “Serum TARC levels” value in the data set with TARC, IP10, IL-18, IFNγ (compared to baseline) is reported as “significantly lower”. Besides, in [1] (Cycle 1 Day 8, preliminary), the “percentage of CD4+ T regulatory (Treg) cells” value was “decrease” and the “proliferating CD8+ T cells” value is given as “no effect”. In data set [1] (peripheral blood), the “T helper subsets, such as Tregs” value is “initial reduction; also recorded: reduced”; the “activated CD4+ T cells” value is listed as “initial reduction; also recorded: reduced”; the “proliferating CD4+ T cells” value is given as “initial reduction; also recorded: reduced”. Besides, in the data set on wild-type A20 cells [2], the “survival of tumor-bearing mice” value was “increased survival” and the tumor growth result is listed as “delayed tumor growth”. Also, the tumor growth result in the data set on wild-type A20 cells [3] (NSG mice given 1×10^6 T cells from mice immunized with BV-killed cells) is listed as “slowed tumor growth”. Further, the “CD8 T cells within the tumor” value in the data set with wild-type A20 cells [3] (NSG mice given T cells from mice immunized with BV-killed cells) is “increased CD8 T cells within the tumor”. Also, the protective anti-tumor immunity entry in the data set on wild-type A20 cells [4] is on record as “conferred protective anti-tumor immunity”. The “intratumoral accumulation of human cytotoxic cells” value with LCL tumors [5] is on record as “enhanced intratumoral accumulation of human cytotoxic cells”. In the data set with LCL tumors [6] (suboptimal dose 1 mg/kg i.p. without the addition of PBMC), the tumor rejection result is “did not reject tumors”. In addition, the immune-mediated tumor clearance result in the data set with LCL tumors [6] (with autologous PBMC, BV 1 mg/kg i.p., nivolumab 10 mg/kg i.p.) is “enhanced immune-mediated tumor clearance”. Also, the ORR in data set [7] was 44%. Moreover, the ORR in [8] is on record as 41%. The ORR in data set [9] is on record as 73%.
Turning to “cAC10: chimeric IgG1 monoclonal antibody that specifically binds CD30”, in the data set with CD30^+ cell lines, the “growth of CD30+ cell lines” value was “induces growth arrest”. Besides, the antitumor activity result in [10] is “pronounced antitumor activity”.
In the case of `CC[C@H](C)[C@@H]([C@@H](CC(=O)N1CCC[C@H]1[C@H](OC)[C@@H](C)C(=O)N[C@H](C)[C@@H](O)c1ccccc1)OC)N(C)C(=O)[C@@H](NC(=O)[C@H](C(C)C)N(C)C(=O)OCc1ccc(NC(=O)[C@H](CCCNC(N)=O)NC(=O)[C@@H](NC(=O)CCCCCN2C(=O)C=CC2=O)C(C)C)cc1)C(C)C` [mc-vc-MMAE] ({Hexanoyl(6-maleimido)}-V[Cit][PABC][NMeV]V[Dil][Dolaproine]-X1), in the data set with wild-type A20 cells [2], the “survival of tumor-bearing mice” value was “increased survival” and the tumor growth result is listed as “delayed tumor growth”. In addition, in the data set on wild-type A20 cells [4], the protective anti-tumor immunity entry is given as “conferred protective anti-tumor immunity”.
Consider nivolumab, for which the T cells result in data set [1] (Cycle 1, one week after nivolumab dosing (2 weeks after BV dosing)) is listed as “robust expansion”. Besides, the “percentage of CD4+ Th1 cells compared to baseline” value in [1] (most patients (5 of 6, 83%)) is “no significant change”. At PD-1, the “mean occupancy rate (PD-1)” value is listed as 85% and the “mean plateau occupancy (PD-1)” value was 72%. In data set [11], the “maximum tolerated dose (MTD)” value is over 10 mg/kg.
